Assays:
[1] = target: MAP kinase-interacting serine/threonine-protein kinase 1 (Homo sapiens) (UniProt Q9BUB5); settings: Compound concentration 1000.0 nM
[2] = target: Serine/threonine-protein kinase MRCK beta (Homo sapiens) (UniProt Q9Y5S2); settings: Compound concentration 1000.0 nM
[3] = target: Tyrosine-protein kinase Lyn (Homo sapiens) (UniProt P07948); settings: Compound concentration 1000.0 nM
[4] = target: Serine/threonine-protein kinase TNNI3K (Homo sapiens) (UniProt Q59H18); settings: Compound concentration 1000.0 nM
[5] = target: Serine/threonine-protein kinase Nek10 (Homo sapiens) (UniProt Q6ZWH5); settings: Compound concentration 1000.0 nM
[6] = target: Serine/threonine-protein kinase Chk1 (Homo sapiens) (UniProt O14757); settings: Compound concentration 1000.0 nM
[7] = target: Ephrin type-B receptor 2 (Homo sapiens) (UniProt P29323); settings: Compound concentration 1000.0 nM
[8] = test system: Tyrosine-protein kinase ABL1 (Homo sapiens), P00519 [T315I]; settings: Compound concentration 1000.0 nM
[9] = target: Serine/threonine-protein kinase pim-1 (Homo sapiens) (UniProt P11309); settings: Compound concentration 1000.0 nM
[10] = target: Dual specificity mitogen-activated protein kinase kinase 1 (Homo sapiens) (UniProt Q02750); settings: Compound concentration 1000.0 nM
[11] = target: Serine/threonine-protein kinase 10 (Homo sapiens) (UniProt O94804); settings: Compound concentration 1000.0 nM
[12] = target: Serine/threonine-protein kinase D1 (Homo sapiens) (UniProt Q15139); settings: Compound concentration 1000.0 nM
[13] = target: Epithelial discoidin domain-containing receptor 1 (Homo sapiens) (UniProt Q08345); settings: Compound concentration 1000.0 nM
[14] = test system: Epidermal growth factor receptor (Homo sapiens), P00533 [UNDEFINED MUTATION]; settings: Compound concentration 1000.0 nM
[15] = target: Ribosomal protein S6 kinase alpha-3 (Homo sapiens) (UniProt P51812); settings: Compound concentration 1000.0 nM
[16] = target: 5'-AMP-activated protein kinase catalytic subunit alpha-2 (Homo sapiens) (UniProt P54646); settings: Compound concentration 1000.0 nM
[17] = target: Serine/threonine-protein kinase TAO1 (Homo sapiens) (UniProt Q7L7X3); settings: Compound concentration 1000.0 nM
[18] = test system: Phosphatidylinositol 4,5-bisphosphate 3-kinase catalytic subunit alpha isoform (Homo sapiens), P42336 [H1047Y]; settings: Compound concentration 1000.0 nM
[19] = target: Fibroblast growth factor receptor 4 (Homo sapiens) (UniProt P22455); settings: Compound concentration 1000.0 nM
[20] = target: Muscarinic acetylcholine receptor M1 (Homo sapiens) (UniProt P11229); settings: Compound concentration 10.0 uM
[21] = target: Serine/threonine-protein kinase LATS2 (Homo sapiens) (UniProt Q9NRM7); settings: Compound concentration 1000.0 nM
[22] = target: Muscarinic acetylcholine receptor M4 (Homo sapiens) (UniProt P08173); settings: Compound concentration 10.0 uM
[23] = test system: Epidermal growth factor receptor (Homo sapiens), P00533 [T790M]; settings: Compound concentration 1000.0 nM
[24] = target: Mitogen-activated protein kinase 15 (Homo sapiens) (UniProt Q8TD08); settings: Compound concentration 1000.0 nM
[25] = target: Tyrosine-protein kinase receptor UFO (Homo sapiens) (UniProt P30530); settings: Compound concentration 1000.0 nM
[26] = target: Alpha-2B adrenergic receptor (Homo sapiens) (UniProt P18089); settings: Compound concentration 10.0 uM
[27] = target: Muscarinic acetylcholine receptor M5 (Homo sapiens) (UniProt P08912); settings: Compound concentration 10.0 uM
[28] = target: Serine/threonine-protein kinase Nek6 (Homo sapiens) (UniProt Q9HC98); settings: Compound concentration 1000.0 nM
[29] = target: Serine/threonine-protein kinase ICK (Homo sapiens) (UniProt Q9UPZ9); settings: Compound concentration 1000.0 nM
[30] = target: Mitogen-activated protein kinase kinase kinase kinase 4 (Homo sapiens) (UniProt O95819); settings: Compound concentration 1000.0 nM
[31] = target: Discoidin domain-containing receptor 2 (Homo sapiens) (UniProt Q16832); settings: Compound concentration 1000.0 nM
[32] = target: Homeodomain-interacting protein kinase 4 (Homo sapiens) (UniProt Q8NE63); settings: Compound concentration 1000.0 nM
[33] = target: Focal adhesion kinase 1 (Homo sapiens) (UniProt Q05397); settings: Compound concentration 1000.0 nM
[34] = test system: Receptor-type tyrosine-protein kinase FLT3 (Homo sapiens), P36888 [K663Q]; settings: Compound concentration 1000.0 nM
[35] = target: Aurora kinase C (Homo sapiens) (UniProt Q9UQB9); settings: Compound concentration 1000.0 nM
[36] = target: RAC-alpha serine/threonine-protein kinase (Homo sapiens) (UniProt P31749); settings: Compound concentration 1000.0 nM
[37] = target: Receptor-type tyrosine-protein kinase FLT3 (Homo sapiens) (UniProt P36888); settings: Compound concentration 1000.0 nM
[38] = target: Ephrin type-B receptor 4 (Homo sapiens) (UniProt P54760); settings: Compound concentration 1000.0 nM
[39] = target: Macrophage colony-stimulating factor 1 receptor (Homo sapiens) (UniProt P07333); settings: Compound concentration 1000.0 nM
[40] = test system: Phosphatidylinositol 4,5-bisphosphate 3-kinase catalytic subunit alpha isoform (Homo sapiens), P42336 [E545A]; settings: Compound concentration 1000.0 nM
[41] = target: Serine/threonine-protein kinase NIM1 (Homo sapiens) (UniProt Q8IY84); settings: Compound concentration 1000.0 nM
[42] = target: NT-3 growth factor receptor (Homo sapiens) (UniProt Q16288); settings: Compound concentration 1000.0 nM
[43] = target: Vascular endothelial growth factor receptor 2 (Homo sapiens) (UniProt P35968); settings: Compound concentration 1000.0 nM
[44] = target: Activin receptor type-2A (Homo sapiens) (UniProt P27037); settings: Compound concentration 1000.0 nM
[45] = target: 5-hydroxytryptamine receptor 3A (Homo sapiens) (UniProt P46098); settings: Compound concentration 10.0 uM

Chain of Serine/threonine-protein kinase Nek10 (Homo sapiens) (Q6ZWH5 whole entry): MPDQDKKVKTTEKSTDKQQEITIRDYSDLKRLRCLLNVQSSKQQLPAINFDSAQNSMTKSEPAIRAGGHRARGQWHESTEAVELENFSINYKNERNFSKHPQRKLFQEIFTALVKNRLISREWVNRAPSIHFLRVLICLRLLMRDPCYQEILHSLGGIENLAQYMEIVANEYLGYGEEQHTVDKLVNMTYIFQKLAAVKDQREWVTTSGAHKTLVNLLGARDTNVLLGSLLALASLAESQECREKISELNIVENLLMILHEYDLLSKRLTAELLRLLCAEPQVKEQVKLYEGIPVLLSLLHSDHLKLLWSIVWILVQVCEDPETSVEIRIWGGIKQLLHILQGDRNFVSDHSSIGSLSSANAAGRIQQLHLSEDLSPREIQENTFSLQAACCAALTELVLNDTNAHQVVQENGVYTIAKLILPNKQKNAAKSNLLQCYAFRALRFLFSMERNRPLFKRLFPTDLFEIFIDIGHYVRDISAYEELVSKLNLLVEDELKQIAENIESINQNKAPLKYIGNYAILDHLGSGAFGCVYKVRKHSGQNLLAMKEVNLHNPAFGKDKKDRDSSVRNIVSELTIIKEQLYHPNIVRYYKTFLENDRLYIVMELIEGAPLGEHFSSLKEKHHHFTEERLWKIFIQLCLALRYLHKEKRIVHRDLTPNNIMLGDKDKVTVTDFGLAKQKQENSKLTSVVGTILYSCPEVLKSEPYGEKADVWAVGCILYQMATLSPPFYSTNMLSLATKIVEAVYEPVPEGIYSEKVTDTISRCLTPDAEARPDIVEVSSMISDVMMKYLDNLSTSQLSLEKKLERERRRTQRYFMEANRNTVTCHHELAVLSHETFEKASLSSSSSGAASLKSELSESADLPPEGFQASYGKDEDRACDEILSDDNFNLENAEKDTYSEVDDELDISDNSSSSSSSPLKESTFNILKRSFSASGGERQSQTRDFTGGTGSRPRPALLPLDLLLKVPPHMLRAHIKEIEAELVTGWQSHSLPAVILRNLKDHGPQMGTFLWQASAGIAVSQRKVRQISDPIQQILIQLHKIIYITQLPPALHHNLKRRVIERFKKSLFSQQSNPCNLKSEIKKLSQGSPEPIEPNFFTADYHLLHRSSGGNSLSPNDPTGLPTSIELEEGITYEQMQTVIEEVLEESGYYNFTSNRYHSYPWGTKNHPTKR
Chain of Activin receptor type-2A (Homo sapiens) (P27037 whole entry): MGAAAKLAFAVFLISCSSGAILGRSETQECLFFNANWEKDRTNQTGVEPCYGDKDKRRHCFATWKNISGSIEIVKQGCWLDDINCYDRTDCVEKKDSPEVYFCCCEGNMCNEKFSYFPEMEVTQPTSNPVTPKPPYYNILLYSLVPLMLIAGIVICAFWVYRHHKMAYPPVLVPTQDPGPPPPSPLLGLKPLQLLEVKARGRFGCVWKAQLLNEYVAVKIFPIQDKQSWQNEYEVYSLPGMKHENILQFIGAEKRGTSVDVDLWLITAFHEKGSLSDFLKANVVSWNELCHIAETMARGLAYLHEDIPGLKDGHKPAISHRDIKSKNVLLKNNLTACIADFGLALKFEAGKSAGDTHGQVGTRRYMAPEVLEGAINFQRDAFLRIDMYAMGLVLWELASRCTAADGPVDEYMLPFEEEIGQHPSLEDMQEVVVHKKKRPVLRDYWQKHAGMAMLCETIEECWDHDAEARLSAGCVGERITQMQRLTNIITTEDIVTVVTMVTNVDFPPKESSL
Chain of Serine/threonine-protein kinase TAO1 (Homo sapiens) (Q7L7X3 whole entry, canonical isoform): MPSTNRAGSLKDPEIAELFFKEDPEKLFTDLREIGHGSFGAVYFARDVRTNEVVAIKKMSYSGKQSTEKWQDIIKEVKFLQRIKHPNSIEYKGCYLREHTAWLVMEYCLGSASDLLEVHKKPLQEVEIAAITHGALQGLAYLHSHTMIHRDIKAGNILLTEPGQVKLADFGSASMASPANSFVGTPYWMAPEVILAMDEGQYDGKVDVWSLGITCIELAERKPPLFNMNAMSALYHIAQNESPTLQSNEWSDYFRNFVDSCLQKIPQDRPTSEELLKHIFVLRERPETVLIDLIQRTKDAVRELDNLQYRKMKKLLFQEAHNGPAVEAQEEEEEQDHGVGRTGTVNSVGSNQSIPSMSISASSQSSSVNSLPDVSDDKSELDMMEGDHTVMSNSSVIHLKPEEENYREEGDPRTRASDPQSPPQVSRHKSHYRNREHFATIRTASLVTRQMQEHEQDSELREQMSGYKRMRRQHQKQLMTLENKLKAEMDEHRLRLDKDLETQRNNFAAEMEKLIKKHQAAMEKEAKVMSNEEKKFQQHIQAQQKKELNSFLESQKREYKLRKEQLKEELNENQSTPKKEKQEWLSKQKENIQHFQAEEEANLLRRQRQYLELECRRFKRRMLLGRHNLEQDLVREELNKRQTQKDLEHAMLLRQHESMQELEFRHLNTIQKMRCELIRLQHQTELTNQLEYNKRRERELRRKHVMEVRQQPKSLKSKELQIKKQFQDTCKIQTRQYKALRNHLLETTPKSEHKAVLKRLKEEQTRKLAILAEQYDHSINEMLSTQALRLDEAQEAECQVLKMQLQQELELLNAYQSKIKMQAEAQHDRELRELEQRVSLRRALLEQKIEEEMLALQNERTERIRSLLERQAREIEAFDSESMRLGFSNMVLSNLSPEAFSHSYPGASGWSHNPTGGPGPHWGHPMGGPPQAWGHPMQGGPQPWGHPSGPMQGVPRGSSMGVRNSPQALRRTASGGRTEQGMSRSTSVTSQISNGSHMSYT
Chain of Homeodomain-interacting protein kinase 4 (Homo sapiens) (Q8NE63 whole entry): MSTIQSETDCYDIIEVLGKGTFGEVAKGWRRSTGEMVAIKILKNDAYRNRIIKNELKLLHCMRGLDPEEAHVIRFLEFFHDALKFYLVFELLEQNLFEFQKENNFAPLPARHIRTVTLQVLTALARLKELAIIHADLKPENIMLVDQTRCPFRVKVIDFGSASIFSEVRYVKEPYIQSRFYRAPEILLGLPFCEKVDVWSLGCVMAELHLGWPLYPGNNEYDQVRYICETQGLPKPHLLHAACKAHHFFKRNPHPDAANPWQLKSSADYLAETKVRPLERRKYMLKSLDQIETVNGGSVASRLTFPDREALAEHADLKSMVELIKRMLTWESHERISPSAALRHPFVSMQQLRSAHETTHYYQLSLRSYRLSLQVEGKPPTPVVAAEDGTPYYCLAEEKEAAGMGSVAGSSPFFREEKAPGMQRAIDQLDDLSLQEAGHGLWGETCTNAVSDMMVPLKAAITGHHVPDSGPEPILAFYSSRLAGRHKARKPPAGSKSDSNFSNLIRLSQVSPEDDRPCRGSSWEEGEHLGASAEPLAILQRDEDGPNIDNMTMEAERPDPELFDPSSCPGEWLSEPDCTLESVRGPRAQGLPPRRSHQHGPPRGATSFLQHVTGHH
Chain of Serine/threonine-protein kinase TNNI3K (Homo sapiens) (Q59H18 whole entry): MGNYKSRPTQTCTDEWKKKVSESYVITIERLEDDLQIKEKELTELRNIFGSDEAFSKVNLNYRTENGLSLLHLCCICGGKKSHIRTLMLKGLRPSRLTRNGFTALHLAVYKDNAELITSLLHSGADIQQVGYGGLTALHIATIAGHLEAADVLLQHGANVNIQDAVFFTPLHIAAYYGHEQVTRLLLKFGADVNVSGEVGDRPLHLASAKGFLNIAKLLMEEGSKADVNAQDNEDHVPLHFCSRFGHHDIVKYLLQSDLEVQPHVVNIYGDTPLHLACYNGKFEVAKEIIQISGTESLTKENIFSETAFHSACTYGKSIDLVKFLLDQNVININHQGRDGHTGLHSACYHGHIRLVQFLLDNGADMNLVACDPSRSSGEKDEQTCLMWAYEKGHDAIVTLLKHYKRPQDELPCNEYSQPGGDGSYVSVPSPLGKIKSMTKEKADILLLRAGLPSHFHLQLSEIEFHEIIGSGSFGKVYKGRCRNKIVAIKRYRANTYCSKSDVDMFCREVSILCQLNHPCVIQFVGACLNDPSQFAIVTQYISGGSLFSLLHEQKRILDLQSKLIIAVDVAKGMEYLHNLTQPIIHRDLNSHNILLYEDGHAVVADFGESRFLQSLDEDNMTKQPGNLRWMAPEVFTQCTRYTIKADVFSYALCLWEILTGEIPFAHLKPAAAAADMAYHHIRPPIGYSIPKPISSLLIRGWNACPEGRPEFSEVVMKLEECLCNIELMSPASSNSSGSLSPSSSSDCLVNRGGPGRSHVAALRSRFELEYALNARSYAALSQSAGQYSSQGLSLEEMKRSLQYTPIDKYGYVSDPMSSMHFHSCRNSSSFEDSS
Chain of Epithelial discoidin domain-containing receptor 1 (Homo sapiens) (Q08345 whole entry, the tested form may be a part): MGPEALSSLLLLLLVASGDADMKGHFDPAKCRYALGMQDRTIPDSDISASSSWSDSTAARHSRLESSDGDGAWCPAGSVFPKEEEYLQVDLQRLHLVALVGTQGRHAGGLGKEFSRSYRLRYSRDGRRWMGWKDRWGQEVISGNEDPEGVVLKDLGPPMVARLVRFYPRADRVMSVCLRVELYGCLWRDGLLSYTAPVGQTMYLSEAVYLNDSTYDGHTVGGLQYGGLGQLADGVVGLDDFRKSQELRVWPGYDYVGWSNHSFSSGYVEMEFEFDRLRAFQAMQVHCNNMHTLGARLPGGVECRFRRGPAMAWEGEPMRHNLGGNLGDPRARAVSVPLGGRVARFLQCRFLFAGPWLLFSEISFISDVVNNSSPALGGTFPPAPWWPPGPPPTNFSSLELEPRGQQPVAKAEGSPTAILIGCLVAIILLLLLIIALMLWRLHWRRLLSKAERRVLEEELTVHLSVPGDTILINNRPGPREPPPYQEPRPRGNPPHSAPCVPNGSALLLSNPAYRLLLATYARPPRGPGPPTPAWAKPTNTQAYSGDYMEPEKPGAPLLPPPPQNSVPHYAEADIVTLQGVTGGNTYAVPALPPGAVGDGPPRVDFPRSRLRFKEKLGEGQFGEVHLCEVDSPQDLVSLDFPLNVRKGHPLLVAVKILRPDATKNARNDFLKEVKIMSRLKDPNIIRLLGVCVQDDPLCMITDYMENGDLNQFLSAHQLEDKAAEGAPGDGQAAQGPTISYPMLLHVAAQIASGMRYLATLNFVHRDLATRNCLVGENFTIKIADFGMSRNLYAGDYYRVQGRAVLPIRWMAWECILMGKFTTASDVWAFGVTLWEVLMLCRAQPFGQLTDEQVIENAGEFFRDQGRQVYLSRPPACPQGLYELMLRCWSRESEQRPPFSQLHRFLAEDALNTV

CN([C@@H]1CCc2c(CC(=O)O)c3cc(S(C)(=O)=O)ccc3n2C1)S(=O)(=O)c1ccc(F)cc1
inactive: residual activity [1] 86% | residual activity [2] 100% | residual activity [3] 100% | residual activity [4] 100% | residual activity [5] 91% | residual activity [6] 100% | residual activity [7] 87% | residual activity [8] 93% | residual activity [9] 100% | residual activity [10] 98% | residual activity [11] 100% | residual activity [12] 75% | residual activity [13] 100% | residual activity [14] 100% | residual activity [15] 81% | residual activity [16] 100% | residual activity [17] 95% | residual activity [18] 90% | residual activity [19] 99% | inhibition [20] -1.48% | residual activity [21] 88% | inhibition [22] -1.13% | residual activity [23] 100% | residual activity [24] 100% | residual activity [25] 100% | inhibition [26] -2.39% | inhibition [27] -6.18% | residual activity [28] 84% | residual activity [29] 93% | residual activity [30] 100% | residual activity [31] 88% | residual activity [32] 100% | residual activity [33] 99% | residual activity [34] 100% | residual activity [35] 78% | residual activity [36] 100% | residual activity [37] 100% | residual activity [38] 95% | residual activity [39] 100% | residual activity [40] 96% | residual activity [41] 100% | residual activity [42] 100% | residual activity [43] 85% | residual activity [44] 100% | inhibition [45] -2.99%

CN([C@@H]1CCc2c(CC(=O)O)c3ccccc3n2C1)S(=O)(=O)c1ccc(F)cc1 [MK-7246]
inactive: residual activity [1] 93% | residual activity [2] 100% | residual activity [3] 100% | residual activity [4] 100% | residual activity [5] 85% | residual activity [6] 100% | residual activity [7] 100% | residual activity [8] 98% | residual activity [9] 96% | residual activity [10] 100% | residual activity [11] 100% | residual activity [12] 100% | residual activity [13] 78% | residual activity [14] 100% | residual activity [15] 86% | residual activity [16] 100% | residual activity [17] 93% | residual activity [18] 97% | residual activity [19] 91% | inhibition [20] 2.42% | residual activity [21] 100% | inhibition [22] 24.4% | residual activity [23] 100% | residual activity [24] 100% | residual activity [25] 100% | inhibition [26] 12.7% | inhibition [27] 6.97% | residual activity [28] 99% | residual activity [29] 100% | residual activity [30] 100% | residual activity [31] 98% | residual activity [32] 100% | residual activity [33] 100% | residual activity [34] 100% | residual activity [35] 100% | residual activity [36] 100% | residual activity [37] 100% | residual activity [38] 95% | residual activity [39] 100% | residual activity [40] 100% | residual activity [41] 100% | residual activity [42] 100% | residual activity [43] 82% | residual activity [44] 100% | inhibition [45] -3.85%
